| Compound | melting point [°C] |
| --- | --- |
| O=C1OC(O)c2ccc([N+](=O)[O-])cc21 (stereo not given) | 157 to 160 |
| O=C(O)c1cc2ncnn2nc1NCCCN1CCC(OC(c2ccccc2)c2ccccc2)CC1 | 207 to 209 |
| CCCCCCOc1cc(N(CC)CC)ccc1C1(c2c(C)n(CC)c3ccccc23)OC(=O)c2cccnc21 (stereo not given) | 154 to 156 |
| CC(C)c1ccc(CCOc2ccnc3c(F)cccc23)cc1 | 56 to 60 |
| CCCNC(=S)NCCc1cccc2ccc(OC)cc12 | 95 to 97 |
| CCOC(=O)C1=C(C)NC(COC(C)=O)=C(C(=O)OCC)C1c1ccccc1OC (stereo not given) | 84 to 86 |
| COc1ccc(-c2ccc(COc3cc4c(cc3CCN(CCCCC(=O)O)Cc3ccc(C(=O)O)cc3)CCCC4)cc2)cc1 | > 240 |
| Cc1ccc(-c2[nH]c(-c3cccc4ccccc34)nc2C(=O)Nc2nccs2)cc1 | 228 to 229 |
| Cc1cccc(C=CC=C2SC(=S)N(CC(=O)O)C2=O)c1 | 220 to 226 |
| Nc1nc(-c2cc(Cl)ccc2Cl)nc(N2CCC(=O)CC2)n1 | 223 to 225 |
| Cc1oc2ccccc2c1OC(C)(C)C(N)=O | 116 to 120 |
| CCCCCN(CCC12CC3CC(CC(C3)C1)C2)C(=O)NCc1cccnc1 | 88.5 to 102 |
| CN(C(=S)c1ccc2nonc2c1)C1CCOCC1 | 174 to 175 |
| CCOC(=O)c1cn(C2CC2)c2c(F)c(F)c(F)c(C)c2c1=O | 176 to 177 |
| O=C(c1ccc(C2CCCCC2)cc1)N1Cc2cccn2Cc2ccccc21 | 127 to 129 |
| OCC1Cc2c([nH]c3ccccc23)CN1C(=S)SCc1ccc(Cl)cc1 (stereo not given) | 175 to 176 |
| COc1cc(C(C)C)c(Oc2cnc(NC(=O)CNC3CCCC3)nc2N)cc1I | 176 to 178 |
| CCOC(=O)COc1cc(-n2c(=O)cc(C(F)(F)F)n(C)c2=O)c(F)cc1Cl | 98 to 101 |
| CC(C)=CCCC(C)=CCOc1ccc(C(=O)NCCc2ccncc2)cc1 | 85.2 to 86.1 |
| Cn1c2ccccc2c2c3c(c4c5cc(O)ccc5n(CCC#N)c4c21)C(=O)NC3=O | 303 to 306 |
| O=C(O)c1cccc(Cl)c1C(F)(F)F | 110 |
| COc1cccc2c1C(NC(C)=O)=NS2(=O)=O | 242 to 245 |
| CN(C(=O)c1ccccn1)c1cc(F)cc(F)c1 | 102 to 104 |
| COc1cc(N)c(C(=O)c2ccncc2)cc1OC | 155 to 158 |
| CCOC(=NC(=O)c1ccc(F)cc1)N1Cc2ccccc2-c2ccccc2C1 | 109 to 110 |

| Compound | melting point [°C] |
| --- | --- |
| COc1ccc2c(c1)OC(CNCCCOc1cnc3ccccc3c1)CC2 (stereo not given) | 132 to 134 |
| CN1C(=O)CCC2(C)c3ccc(Sc4ccc5ccccc5n4)cc3CCC12 (single isomer, unassigned; (+)) | 175 to 177 |
| CSc1ccc(C(=O)c2c(C)cc3n2CCC3C(=O)O)n1C (stereo not given) | 182 to 184 |
| Cc1ccc(Br)cc1NC(=O)NCCCNCCCCl | 145 to 148 |
| CCN(CC)CC1CCCCN1CCNC(=O)N1c2ccccc2NC(=O)c2csc(C)c21 (stereo not given) | 132 to 133 |
| Cc1cc(C)c(S(=O)(=O)NC(COc2ccnc3ccccc23)C(F)(F)F)c(C)c1 (stereo not given) | 211 to 212 |
| Oc1cncc(Oc2ccccc2)c1 | 107 |
| CCOC(=O)Nc1csc2cc(OCc3ccccc3)ccc12 | 129 to 130 |
| CC(C)[C@H](NC(=O)OCc1ccccc1)C(=O)NC(Cc1ccccc1)C(O)C(N)Cc1ccccc1 (stereo not given in full) | 158 to 160 |
| C=CC(=O)NCNC(=O)CCS(=O)(=O)CCCl | 186 to 187 |
| CCCCc1ncc(/C=C(\Cc2cccs2)C(=O)O)n1Cc1ccccc1[N+](=O)[O-] | 205 to 206 |
| O=Cc1c(Cl)cncc1Cl | 110 to 111 |
| CC1(N2Cc3cc(CNC(=O)c4ccc(OC(F)(F)F)cc4)ccc3C2=O)CCC(=O)NC1=O (stereo not given) | 224 to 226 |
| NC(=O)C1CCN(CCO)CC1 | 141 to 142 |
| Fc1ccccc1-c1ncn(CCCCN2CCOCC2)c1-c1ccncc1 | 103 to 104 |
| N#Cc1ccc(N2C(=O)NC3(CCCC3)C2=O)cc1C(F)(F)F | 184 to 185 |
| CCOC(=O)c1cc2c(nc1C)CCCC2 | 105 to 106 |
| C1=C(c2ccccc2)CSS1 | 122 to 124 |
| Cc1oc(-c2ccccc2)nc1COc1ccc(CCCC2OC(=O)NC2=O)cc1F (stereo not given) | 180 to 181 |
| Cc1c(CO)cccc1NC(=O)CC12CC3CC(CC(C3)C1)C2 | 205 to 206 |
| CC(=O)Nc1cc(C)c(O)cc1C | 183 |
| CC(C)(C)c1cc(OCC(N)=S)cc(C(C)(C)C)c1O | 163 to 164 |
| COc1ccc(-n2nc(C(C)C)cc2-c2ccc(OCCNS(C)(=O)=O)cc2)cn1 | 96 to 97 |
| CCOC(=O)Cc1ccc2c(c1)sc1ccc(Cl)cc12 | 88 to 90 |
| CN(C)CC(=O)OCC1CC(c2ccc(-c3ccc(N4C[C@H](Cn5ccnn5)OC4=O)cc3F)cn2)=NO1 (stereo not given in full) | 185 to 198 |

| Compound | melting point [°C] |
| --- | --- |
| Cc1cc(I)ccc1NC1=CC2=NCN(C)C2=CC1(F)C(=O)NOCC(O)CO (stereo not given) | 212 to 213 |
| C=Cc1ccc(-c2ncccc2S(=O)(=O)Nc2ncc(C)nc2OC)cc1 | 110 to 112 |
| CC(C)c1nc(C(O)(C(F)(F)F)C(F)(F)F)[nH]c1-c1ccc([N+](=O)[O-])cc1 | 157 to 160 |
| Nc1ncnc2c1c(-c1ccc(Oc3ccccc3)cc1)cn2C1CCNC1 (stereo not given) | 182 to 184 |
| CCNC(=O)c1sc(SC)cc1[Si](C)(C)C | 58 to 61 |
| Nc1ccccc1SCn1ccccc1=O | 130 to 133 |
| CC(C)c1cccc(C(C)C)c1N1C(=O)c2cccc3c(Br)ccc(c23)C1=O | 277 |
| NC(=O)c1c(Cl)c(Cl)c(Cl)c(Cl)c1Cl | 268 to 270 |
| COc1ccc(C(=O)Nc2c(F)cccc2F)cc1OC1CCCC1 | 158 to 160 |
| CC(C)OC(=O)c1cc(F)c(F)c(-c2ccc(Cl)cc2)n1 | 73 to 74 |
| O=C(Nc1ccc(OC(F)(F)C(F)F)cc1)N1CC(c2ccccc2)C(c2ccc(OC(F)F)cc2)=N1 (stereo not given) | 132 to 135 |
| CCCCN(CCCC)c1ccc(C=CC2=CC(=CC=CC3=C(C#N)C(=C(C#N)C#N)OC3(c3ccccc3)C(F)(F)F)CC(C)(C)C2)c(OC)c1 (stereo not given) | 164 to 166 |
| O=C(C=Cc1cccc(Br)c1)c1ccc(OC2CCCCO2)cc1 (stereo not given) | 166 to 168 |
| N=C(N)SCc1c(Cl)ccc2c1oc1c(CSC(=N)N)c(Cl)ccc12 | > 220 |
| Nc1nc(N)nc(C2CCN(C(=O)c3ccccc3)CC2)n1 | 246 to 248 |
| COc1cc2c(c(N(C(C)=O)C(C)=O)c1)CC(C)O2 (stereo not given) | 56 to 57 |
| NC(=O)c1cccc([N+](=O)[O-])c1N | 238 to 239 |
| c1ccc(CSc2nc(SCc3ccccc3)n(-c3ncccn3)n2)cc1 | 86 to 88 |
| O=C(O)C(=O)CC(=O)c1cc(CCc2ccccc2)cn1Cc1ccc(F)cc1 | 135 to 137 |
| CC(=O)OC/C(=C(\C(=O)N(C)CC(C)(C)S)c1ccc(F)cc1)c1ccc(S(C)(=O)=O)cc1 | 45 to 47 |
| Cc1cc(C(=O)OC(C)(C)C)c(NC(=O)Nc2ccc(Oc3ccccc3)cc2)s1 | 130 to 132 |
| CONC(=O)Nc1ccc(-c2sc3c(c2CN(C)C(C)c2ccccn2)c(=O)n(-c2ccccn2)c(=O)n3Cc2c(F)cccc2F)cc1 (stereo not given) | 143 to 144 |
| C#CCN(C)CC(O)c1cccc(O)c1 (stereo not given) | 102 to 103 |
| CC(C)(C)SC1CC(=O)N1CC(=O)CCc1ccccc1 (stereo not given) | 65 |
| C=CCN(CC=C)c1nc(NC(=O)CC)n2oc(=O)nc2n1 | 157 to 159 |

| Compound | melting point [°C] |
| --- | --- |
| Cc1ccc(C2CCN(C(=O)CCC(=O)c3ccc4c(c3)CCNCC4)CC2)cc1 | 115 to 116 |
| CCOC(=O)C1CCCCN1C(=O)Nc1cc(C(=O)OC(C)C)c(Cl)cc1F (stereo not given) | 83 to 85 |
| CNc1ccccc1C(=O)COC(=O)c1ccccc1 | 85 to 87 |
| N#Cc1ccc(OCc2ccncc2)cc1OC(C(=O)O)c1ccccc1Cl (racemic) | 225 to 226 |
| Sc1nccn1Cc1cccs1 | 130 to 131 |
| COC(=O)CCCc1cc2nc(Cl)ccc2n1S(=O)(=O)c1cccc2nsnc12 | 112 |
| O=C(O)[C@H](Cc1ccc(C(F)(F)F)cc1)[C@@H](O)c1cccc2ccccc12 (racemic) | 151 to 152 |
| Cc1cc(C=O)cc(Oc2nc(Cl)nc(Cl)c2C(C)C)c1 | 227 to 229 |
| O=C(O)c1ccc(OCCCON=Cc2ccc(-c3ccccc3)cc2)cc1NC(=O)c1ccccc1C(F)(F)F | 170 to 172 |
| COc1c(Cl)ccc(-c2nc(N)c(C(C)OC)c(C(=O)O)n2)c1F (stereo not given) | 165 to 167 |
| ClCCc1nc2c(ccc3ccccc32)o1 | 80 to 82 |
| Cc1ccc2c(c1O)NC(S(=O)O)C1CC(C=CC(N)=O)=CN1C2=O (stereo not given) | 252 to 255 |
| COc1ccc(Cn2c(=O)[nH]c3ccc([N+](=O)[O-])cc3c2=O)cc1 | 254 to 256 |
| CN1CC(C(=O)CO)CC2c3cccc4[nH]cc(c34)CC21 (stereo not given) | 202 to 203 |
| Cn1c(=O)c(C(=O)O)c(-c2ccccc2Cl)c2ccncc21 | > 250 |
| COC(=O)C1CCC2C3CCC4CC(=O)CCC4(C)C3C(NC3CCCC3)CC12C (stereo not given) | 156 to 158 |
| CCCCCCCNC(=S)N(C)c1cccc(-c2ccc(CCC(=O)O)cc2)c1 | 95 to 96 |
| COC(=O)CC1NC(=O)C(Cc2ccccc2)NC1=O (stereo not given) | 217 to 218 |
| Cn1c(C(N)=O)c(-c2ccc(NC(=O)Nc3cc(C(F)(F)F)ccc3F)cc2)c2ccccc21 | > 260 |
| COc1ccc(C2=NN(CCCCCCNCC(O)c3ccc(N)c(C#N)c3)C(=O)C3CCCCC23)cc1OC (stereo not given) | 101 to 103 |
| CCC(OC)c1c(Br)c(Oc2ncnc3[nH]nnc23)c(OC)c(C)c1C(C)C (stereo not given) | 149 to 150 |
| CNC1=CC=CC(OCCCN2CCC(c3noc4cc(F)ccc34)CC2)(C(C)=O)C1 (stereo not given) | 151 to 153 |
| COC1=CC(C)(O)C(CCC(=O)O)C=C1 (stereo not given) | 142 |
| Cc1ccc(C(=O)NC(NC(=S)Nc2cccc(C)c2)C(F)(F)F)cc1 (stereo not given) | 197 to 198 |
| CC1(C)OC[C@H]([C@@H]2CNC(=O)C2)O1 | 84 to 86 |

From a melting point compilation (Tetko et al.; mined from patent text by program, amines drawn as free bases though some values may be those of a salt)
